Results published in patent US20070010670A1, “Nitrogen-containing fused ring compounds and use thereof” (Japan Tobacco Inc., priority 2004, published 2007).

target: T1, CYP2C9 (Homo sapiens, UniProt P11712); experiment: CYP inhibitory test using human liver microsome; assay type: in vitro ADME; conditions: model substrate diclofenac, 37° C. 10 min, read-out: CYP2C9 inhibition IC50
T1 construct: Human liver microsome (20 mg protein/mL, 5 μL, Xenotech LLC, purchased from Lenexa KS); tissue Xenotech LLC; host or cells: human liver microsome
T1 sequence (P11712 whole entry): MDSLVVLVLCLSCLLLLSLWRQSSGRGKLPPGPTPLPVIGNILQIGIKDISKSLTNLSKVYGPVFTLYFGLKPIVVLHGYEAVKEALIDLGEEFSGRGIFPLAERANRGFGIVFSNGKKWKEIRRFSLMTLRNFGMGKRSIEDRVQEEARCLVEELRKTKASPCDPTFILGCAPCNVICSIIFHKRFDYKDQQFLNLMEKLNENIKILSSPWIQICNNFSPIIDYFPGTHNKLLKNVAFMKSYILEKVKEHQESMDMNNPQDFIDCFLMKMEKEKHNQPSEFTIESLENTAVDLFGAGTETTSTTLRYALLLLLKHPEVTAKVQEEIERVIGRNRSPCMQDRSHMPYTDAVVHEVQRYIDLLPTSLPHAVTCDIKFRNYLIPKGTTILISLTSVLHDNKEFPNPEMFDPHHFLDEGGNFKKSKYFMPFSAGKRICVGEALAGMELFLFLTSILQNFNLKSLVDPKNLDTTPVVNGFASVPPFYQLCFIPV
Procedure: Human liver microsome (20 mg protein/mL, 5 μL, Xenotech LLC, purchased from Lenexa KS) was suspended in 100 mM potassium phosphate buffer (70 μL, pH 7.4), mixed with a solution (0.5 μL) of the Example compound dissolved in DMSO and preincubated at 37° C. for 5 min. NADPH producing system coenzyme solution (β-nicotinamide adenine dinucleotide phosphate: 5.2 mM, D-glucose-6-phosphate: 13.2 mM, magnesium chloride: 13.2 mM, glucose-6-phosphate dehydrogenase: 1.8 U/mL) 25 μL, and a model substrate (CYP3A4: midazolam 1 mM, CYP2D6: bufuralol 1 mM, CYP2C9: diclofenac 2 mM) 0.5 μL dissolved in DMSO were added to start the reaction. After incubation at 37° C. for 10 min., acetonitrile (200 μL) containing an internal standard substance (propranolol 1 μM) was added and the mixture was centrifuged (room temperature, 3000 rpm, 20 min). The amount of the metabolite produced from each model substrate in the supernatant was measured by high performance liquid chromatography/mass spectrometry (LC/MS/MS) and each CYP enzyme activity was determined. The concentration showing 50% inhibition (IC50) was calculated relative to the enzyme activity without addition of Example compound (DMSO 0.5 μL added) as 100%.

SMILES	IC50 [µM]
O=C(c1ccc(O)c(Br)c1)N1CCOc2ccccc21 [Example 2, (3-bromo-4-hydroxyphenyl)-(2,3-dihydrobenzo[1,4]oxazin-4-yl)-methanone]	37
Cc1cc(C(=O)N2CCOc3ccccc32)cc(C)c1O [Example 7, (2,3-dihydrobenzo[1,4]oxazin-4-yl)-(4-hydroxy-3,5-dimethylphenyl)-methanone]	4
Oc1c(Cl)cc(C(=S)N2CCOc3ccccc32)cc1Cl [Example 11, (3,5-dichloro-4-hydroxyphenyl)-(2,3-dihydrobenzo[1,4]oxazin-4-yl)-methanethione]	12
Cc1ccc2c(c1)N(C(=O)c1cc(Cl)c(O)c(Cl)c1)CCO2 [Example 12, (3,5-dichloro-4-hydroxyphenyl)-(6-methyl-2,3-dihydrobenzo[1,4]oxazin-4-yl)-methanone]	22
Cc1cccc2c1N(C(=O)c1cc(Cl)c(O)c(Cl)c1)CCO2 [Example 14, (3,5-dichloro-4-hydroxyphenyl)-(5-methyl-2,3-dihydrobenzo[1,4]oxazin-4-yl)-methanone]	16
O=C(c1cc(Cl)c(O)c(Cl)c1)N1CCOc2ccc3ccccc3c21 [Example 16, (3,5-dichloro-4-hydroxyphenyl)-(2,3-dihydronaphtho[2,1-b][1,4]oxazin-1-yl)-methanone]	10
O=C(c1cc(Cl)c(O)c(Cl)c1)N1CCOc2ccc(O)cc21 [Example 19, (3,5-dichloro-4-hydroxyphenyl)-(6-hydroxy-2,3-dihydrobenzo[1,4]oxazin-4-yl)-methanone]	> 50
O=C(c1cc(Cl)c(O)c(Cl)c1)N1CCOc2cc(O)ccc21 [Example 20, (3,5-dichloro-4-hydroxyphenyl)-(7-hydroxy-2,3-dihydrobenzo[1,4]oxazin-4-yl)-methanone]	13
CCN(CC)S(=O)(=O)c1ccc2c(c1)N(C(=O)c1cc(Cl)c(O)c(Cl)c1)CCO2 [Example 21, 4-(3,5-dichloro-4-hydroxybenzoyl)-3,4-dihydro-2H-benzo[1,4]oxazine-6-sulfonic acid diethylamide]	17
O=C(c1cc(Cl)c(O)c(Cl)c1)N1CCCCc2ccccc21 [Example 27, (3,5-dichloro-4-hydroxyphenyl)-(2,3,4,5-tetrahydrobenzo[b]azepin-1-yl)-methanone]	21
O=C(c1cnc(O)c(Cl)c1)N1CCOc2ccccc21 [Example 29, (5-chloro-6-hydroxypyridin-3-yl)-(2,3-dihydrobenzo[1,4]oxazin-4-yl)-methanone]	> 50
O=C(c1cc([N+](=O)[O-])c(O)c([N+](=O)[O-])c1)N1CCOc2ccccc21 [Example 30, (2,3-dihydrobenzo[1,4]oxazin-4-yl)-(4-hydroxy-3,5-dinitrophenyl)-methanone]	> 50
CC(C)c1cccc2c1OC(C(C)C)CN2C(=O)c1cc(Cl)c(O)c(Cl)c1 (centres unmarked) [Example 32, (3,5-dichloro-4-hydroxyphenyl)-(2,8-diisopropyl-2,3-dihydrobenzo[1,4]oxazin-4-yl)-methanone]	10
CCNS(=O)(=O)c1ccc2c(c1)N(C(=O)c1cc(Cl)c(O)c(Cl)c1)CCO2 [Example 34, 4-(3,5-dichloro-4-hydroxybenzoyl)-3,4-dihydro-2H-benzo[1,4]oxazine-6-sulfonic acid ethylamide]	11

Results, then the molecule that gave them:

IC50 [µM]	SMILES
> 50	O=C(c1ccc(O)c(Cl)c1)N1CCOc2ccccc21 [Example 1, (3-chloro-4-hydroxyphenyl)-(2,3-dihydrobenzo[1,4]oxazin-4-yl)-methanone]
27	O=C(c1cc(Cl)c(O)c(Cl)c1)N1CCOc2ccccc21 [Example 3, (3,5-dichloro-4-hydroxyphenyl)-(2,3-dihydrobenzo[1,4]oxazin-4-yl)-methanone]
9	O=C(c1cc(Br)c(O)c(Br)c1)N1CCOc2ccccc21 [Example 4, (3,5-dibromo-4-hydroxyphenyl)-(2,3-dihydrobenzo[1,4]oxazin-4-yl)-methanone]
2	O=C(c1cc(I)c(O)c(I)c1)N1CCOc2ccccc21 [Example 5, (2,3-dihydrobenzo[1,4]oxazin-4-yl)-(4-hydroxy-3,5-diiodophenyl)-methanone]
> 50	O=C(c1cc(F)c(O)c(F)c1)N1CCOc2ccccc21 [Example 6, (3,5-difluoro-4-hydroxyphenyl)-(2,3-dihydrobenzo[1,4]oxazin-4-yl)-methanone]
19	O=C(c1cc(Cl)c(O)c(Cl)c1)N1CCSc2ccccc21 [Example 8, (3,5-dichloro-4-hydroxyphenyl)-(2,3-dihydrobenzo[1,4]thiazin-4-yl)-methanone]
> 50	O=C(c1cc(Cl)c(O)c(Cl)c1)N1CCS(=O)(=O)c2ccccc21 [Example 10, (3,5-dichloro-4-hydroxyphenyl)-(1,1-dioxo-2,3-dihydro-1H-1λ^6-benzo[1,4]thiazin-4-yl)-methanone]
18	Cc1ccc2c(c1)OCCN2C(=O)c1cc(Cl)c(O)c(Cl)c1 [Example 13, (3,5-dichloro-4-hydroxyphenyl)-(7-methyl-2,3-dihydrobenzo[1,4]oxazin-4-yl)-methanone]
6	Cc1cccc2c1OCCN2C(=O)c1cc(Cl)c(O)c(Cl)c1 [Example 15, (3,5-dichloro-4-hydroxyphenyl)-(8-methyl-2,3-dihydrobenzo[1,4]oxazin-4-yl)-methanone]
33	COc1ccc2c(c1)N(C(=O)c1cc(Cl)c(O)c(Cl)c1)CCO2 [Example 17, (3,5-dichloro-4-hydroxyphenyl)-(6-methoxy-2,3-dihydrobenzo[1,4]oxazin-4-yl)-methanone]
9	COc1ccc2c(c1)OCCN2C(=O)c1cc(Cl)c(O)c(Cl)c1 [Example 18, (3,5-dichloro-4-hydroxyphenyl)-(7-methoxy-2,3-dihydrobenzo[1,4]oxazin-4-yl)-methanone]
1	O=S(=O)(c1cc(Cl)c(O)c(Cl)c1)N1CCOc2ccccc21 [Example 22, 2,6-dichloro-4-(2,3-dihydrobenzo[1,4]oxazine-4-sulfonyl)phenol]
19	CC(C)(C)c1ccc2c(c1)N(C(=O)c1cc(Cl)c(O)c(Cl)c1)CCO2 [Example 23, (6-tert-butyl-2,3-dihydrobenzo[1,4]oxazin-4-yl)-(3,5-dichloro-4-hydroxyphenyl)-methanone]
> 50	O=C1COc2ccccc2N1C(=O)c1cc(Cl)c(O)c(Cl)c1 [Example 24, 4-(3,5-dichloro-4-hydroxybenzoyl)-4H-benzo[1,4]oxazin-3-one]
> 50	NS(=O)(=O)c1ccc2c(c1)N(C(=O)c1cc(Cl)c(O)c(Cl)c1)CCO2 [Example 25, 4-(3,5-dichloro-4-hydroxybenzoyl)-3,4-dihydro-2H-benzo[1,4]oxazine-6-sulfonamide]
13	O=C(c1cc(Cl)c(O)c(Cl)c1)N1CCCc2ccccc21 [Example 26, (3,5-dichloro-4-hydroxyphenyl)-(3,4-dihydro-2H-quinolin-1-yl)-methanone]
20	O=C(c1cc(Cl)c(O)c([N+](=O)[O-])c1)N1CCOc2ccccc21 [Example 31, (3-chloro-4-hydroxy-5-nitrophenyl)-(2,3-dihydrobenzo[1,4]oxazin-4-yl)-methanone]
4	O=C(c1cc(Cl)c(O)c(Cl)c1)N1CCOc2ccc(S(=O)(=O)N3CCCC3)cc21 [Example 33, (3,5-dichloro-4-hydroxyphenyl)-[6-(pyrrolidine-1-sulfonyl)-2,3-dihydrobenzo[1,4]oxazin-4-yl]-methanone]
